Test results reported in patent publication US12715849B2, “Herbicidal tetrazole compounds” (SYNGENTA CROP PROTECTION AG, priority 2020, dated 2026).

Columns and labels:
Assay in all cases: Glasshouse herbicidal test, pre- and post-emergence (Table B1)
Type in all cases: in vivo
[1] = tested on: Ablution theophrasti (ABUTH); details: 130 g/h, evaluated after 13 days; for percentage damage caused to the plant, POST Application ABUTH: post-emergence; for percentage damage caused to the plant, PRE Application ABUTH: pre-emergence
Protocol: (§1) Seeds of a variety of test species are sown in standard soil in pots (Lolium perenne (LOLPE), Amaranthus retoflexus (AMARE), Amaranthus palmeri (AMAPA), Ablution theophrasti (ABUTH), Setaria faberi (SETFA), Echinochloa crus-galli (ECHCG), Ipomoea hederacea (IPOHE)). After cultivation for one day (pre-emergence) or after 8 days cultivation (post-emergence) under controlled conditions in a glasshouse (at 24/16° C., day/night; 14 hours light; 65% humidity), the plants are sprayed with an aqueous spray solution derived from the formulation of the technical active ingredient in acetone/water (50:50) solution containing 0.5% Tween 20 (polyoxyethelyene sorbitan monolaurate, CAS RN 9005-64-5). Compounds are applied at 130 g/h unless otherwise indicated. The test plants are then grown in a glasshouse under controlled conditions in a glasshouse (at 24/16° C., day/night; 14 hours light; 65% humidity) and watered twice daily. After 13 days for pre and post-emergence, the test is evaluated for the percentage damage caused to the plant. The biological activities are shown in the following table on a five-point scale (5=80-100%; 4=60-79%; 3=40-59%; 2=20-39%; 1=0-19%).

[2] = tested on: Amaranthus retoflexus (AMARE); details: 130 g/h, evaluated after 13 days; for percentage damage caused to the plant, POST Application AMARE: post-emergence; for percentage damage caused to the plant, PRE Application AMARE: pre-emergence
Protocol: as §1

[3] = tested on: Echinochloa crus-galli (ECHCG); details: 130 g/h, evaluated after 13 days; for percentage damage caused to the plant, POST Application ECHCG: post-emergence; for percentage damage caused to the plant, PRE Application ECHCG: pre-emergence
Protocol: as §1

[4] = tested on: Ipomoea hederacea (IPOHE); details: 130 g/h, evaluated after 13 days; for percentage damage caused to the plant, POST Application IPOHE: post-emergence; for percentage damage caused to the plant, PRE Application IPOHE: pre-emergence
Protocol: as §1

Setaria faberi (SETFA) = details: 130 g/h, evaluated after 13 days; for percentage damage caused to the plant, POST Application SETFA: post-emergence; for percentage damage caused to the plant, PRE Application SETFA: pre-emergence
Protocol: as §1

[5] = tested on: Amaranthus palmeri (AMAPA); details: 130 g/h, evaluated after 13 days; for percentage damage caused to the plant, POST Application AMAPA: post-emergence; for percentage damage caused to the plant, PRE Application AMAPA: pre-emergence
Protocol: as §1

SMILES | percentage damage caused to the plant, POST Application ABUTH [1] | percentage damage caused to the plant, PRE Application ABUTH [1] | percentage damage caused to the plant, POST Application AMARE [2] | percentage damage caused to the plant, PRE Application AMARE [2] | percentage damage caused to the plant, POST Application ECHCG [3] | percentage damage caused to the plant, PRE Application ECHCG [3] | percentage damage caused to the plant, POST Application IPOHE [4] | percentage damage caused to the plant, PRE Application IPOHE [4] | percentage damage caused to the plant, POST Application SETFA (Setaria faberi (SETFA)) | percentage damage caused to the plant, PRE Application SETFA (Setaria faberi (SETFA)) | percentage damage caused to the plant, POST Application AMAPA [5] | percentage damage caused to the plant, PRE Application AMAPA [5]
CCS(=O)(=O)Nc1c(OC(F)(F)F)ccc(C(=O)Nc2nnnn2C)c1Cl [Compound 1.003, 2-chloro-3-(ethylsulfonylamino)-N-(1-methyltetrazol-5-yl)-4-(trifluoromethoxy)benzamide] | 5 (5=80-100%) | 5 (5=80-100%) | 4 (4=60-79%) | 5 (5=80-100%) | 5 (5=80-100%) | 5 (5=80-100%) | 5 (5=80-100%) | 4 (4=60-79%) | 5 (5=80-100%) | 4 (4=60-79%) | – | –
CCn1nnnc1NC(=O)c1ccc(OC(F)F)c(NS(C)(=O)=O)c1Cl [Compound 1.059] | 5 (5=80-100%) | 5 (5=80-100%) | 5 (5=80-100%) | 5 (5=80-100%) | 5 (5=80-100%) | 5 (5=80-100%) | 5 (5=80-100%) | 2 (2=20-39%) | 5 (5=80-100%) | 4 (4=60-79%) | – | –
CCS(=O)(=O)Nc1c(OC(F)F)ccc(C(=O)Nc2nnnn2C)c1Cl [Compound 1.064] | 5 (5=80-100%) | 5 (5=80-100%) | 5 (5=80-100%) | 5 (5=80-100%) | 5 (5=80-100%) | 5 (5=80-100%) | 4 (4=60-79%) | 2 (2=20-39%) | 5 (5=80-100%) | 4 (4=60-79%) | 5 (5=80-100%) | 5 (5=80-100%)
CCn1nnnc1NC(=O)c1ccc(OC(F)(F)F)c(NS(C)(=O)=O)c1Cl [Compound 1.001] | 5 (5=80-100%) | 5 (5=80-100%) | 4 (4=60-79%) | 5 (5=80-100%) | 5 (5=80-100%) | 5 (5=80-100%) | 5 (5=80-100%) | 4 (4=60-79%) | 5 (5=80-100%) | 3 (3=40-59%) | – | –
Cn1nnnc1NC(=O)c1ccc(OC(F)(F)F)c(NS(C)(=O)=O)c1Cl [Compound 1.004] | 5 (5=80-100%) | 5 (5=80-100%) | 5 (5=80-100%) | 5 (5=80-100%) | 5 (5=80-100%) | 5 (5=80-100%) | 4 (4=60-79%) | 3 (3=40-59%) | 5 (5=80-100%) | 5 (5=80-100%) | – | –
COCCS(=O)(=O)Nc1c(OC(F)(F)F)ccc(C(=O)Nc2nnnn2C)c1Cl [Compound 1.054] | – | – | 5 (5=80-100%) | 5 (5=80-100%) | 5 (5=80-100%) | 1 (1=0-19%) | 4 (4=60-79%) | 3 (3=40-59%) | 4 (4=60-79%) | 1 (1=0-19%) | 5 (5=80-100%) | 5 (5=80-100%)
